Measurements as given in patent US10077261B2, “Imidazolin-5-one derivative useful as FASN inhibitors for the treatment of cancer” (Janssen Pharmaceutica NV, priority 2012, dated 2018).
Where two headings read alike, the source gives them in different places.

Molecular target: T1, hFASN enzyme (full length) (Homo sapiens, UniProt P49327)
T1 construct: 10 μL hFASN enzyme (full length, 300 ng, purified in house); made in house
Assay: Fatty Acid Synthase (FASN) inhibition scintillation proximity assay
Format: biochemical
Conditions: for IC50: read-out: Human FASN pIC50 (converted)
Experimental: In this assay, inhibition of FASN activity is measured using ^3H-acetyl-CoA and malonyl-CoA as substrates. ^3H-Acetyl CoA is converted to ^3H-palmitate through a series of reactions by the FASN protein, which contains 7 functional domains and carries out 7 enzymatic reactions to ultimately produce ^3H-palmitate. The assay principle is based upon the fact that ^3H-acetyl-CoA is hydrophilic and the end product, ^3H-palmitate is hydrophobic.
10 μL assay buffer (100 mM KH2PO4 pH 7.5, 1 mM DTT) (20 μL in blanks) was added to a 384-well white optiplate plate (Perkin Elmer). 0.9 μL test compound (at concentrations of 30 μM, 10 μM, 3 μM, 1 μM, 0.30 μM, 0.10 μM, 0.03 μM and 0.01 μM)/DMSO and 10 μL hFASN enzyme (full length, 300 ng, purified in house) or 10 μL assay buffer was added to the wells. […] The reaction was stopped by adding 20 μL Streptavidin coupled imaging beads (25 mg/ml). After incubation for 30 minutes at room temperature in the dark, the 384 well plate was centrifuged at 1500 rpm for 3 minutes and was measured after at least 24 hrs by the LEADseeker™, measuring emission using a 610±20 nm pass filter.
where mLC and mHC were the means of the low control wells and high control wells on the plate, after manual exclusion of outliers. A plot of Controlmin versus test compound concentration was fitted to a 4-parameter logistic curve using a non-linear least squares regression method.

[1] = read-out: Human FASN % inhibition @ 10 μM, 10 μM test compound

T1 sequence (P49327 whole entry): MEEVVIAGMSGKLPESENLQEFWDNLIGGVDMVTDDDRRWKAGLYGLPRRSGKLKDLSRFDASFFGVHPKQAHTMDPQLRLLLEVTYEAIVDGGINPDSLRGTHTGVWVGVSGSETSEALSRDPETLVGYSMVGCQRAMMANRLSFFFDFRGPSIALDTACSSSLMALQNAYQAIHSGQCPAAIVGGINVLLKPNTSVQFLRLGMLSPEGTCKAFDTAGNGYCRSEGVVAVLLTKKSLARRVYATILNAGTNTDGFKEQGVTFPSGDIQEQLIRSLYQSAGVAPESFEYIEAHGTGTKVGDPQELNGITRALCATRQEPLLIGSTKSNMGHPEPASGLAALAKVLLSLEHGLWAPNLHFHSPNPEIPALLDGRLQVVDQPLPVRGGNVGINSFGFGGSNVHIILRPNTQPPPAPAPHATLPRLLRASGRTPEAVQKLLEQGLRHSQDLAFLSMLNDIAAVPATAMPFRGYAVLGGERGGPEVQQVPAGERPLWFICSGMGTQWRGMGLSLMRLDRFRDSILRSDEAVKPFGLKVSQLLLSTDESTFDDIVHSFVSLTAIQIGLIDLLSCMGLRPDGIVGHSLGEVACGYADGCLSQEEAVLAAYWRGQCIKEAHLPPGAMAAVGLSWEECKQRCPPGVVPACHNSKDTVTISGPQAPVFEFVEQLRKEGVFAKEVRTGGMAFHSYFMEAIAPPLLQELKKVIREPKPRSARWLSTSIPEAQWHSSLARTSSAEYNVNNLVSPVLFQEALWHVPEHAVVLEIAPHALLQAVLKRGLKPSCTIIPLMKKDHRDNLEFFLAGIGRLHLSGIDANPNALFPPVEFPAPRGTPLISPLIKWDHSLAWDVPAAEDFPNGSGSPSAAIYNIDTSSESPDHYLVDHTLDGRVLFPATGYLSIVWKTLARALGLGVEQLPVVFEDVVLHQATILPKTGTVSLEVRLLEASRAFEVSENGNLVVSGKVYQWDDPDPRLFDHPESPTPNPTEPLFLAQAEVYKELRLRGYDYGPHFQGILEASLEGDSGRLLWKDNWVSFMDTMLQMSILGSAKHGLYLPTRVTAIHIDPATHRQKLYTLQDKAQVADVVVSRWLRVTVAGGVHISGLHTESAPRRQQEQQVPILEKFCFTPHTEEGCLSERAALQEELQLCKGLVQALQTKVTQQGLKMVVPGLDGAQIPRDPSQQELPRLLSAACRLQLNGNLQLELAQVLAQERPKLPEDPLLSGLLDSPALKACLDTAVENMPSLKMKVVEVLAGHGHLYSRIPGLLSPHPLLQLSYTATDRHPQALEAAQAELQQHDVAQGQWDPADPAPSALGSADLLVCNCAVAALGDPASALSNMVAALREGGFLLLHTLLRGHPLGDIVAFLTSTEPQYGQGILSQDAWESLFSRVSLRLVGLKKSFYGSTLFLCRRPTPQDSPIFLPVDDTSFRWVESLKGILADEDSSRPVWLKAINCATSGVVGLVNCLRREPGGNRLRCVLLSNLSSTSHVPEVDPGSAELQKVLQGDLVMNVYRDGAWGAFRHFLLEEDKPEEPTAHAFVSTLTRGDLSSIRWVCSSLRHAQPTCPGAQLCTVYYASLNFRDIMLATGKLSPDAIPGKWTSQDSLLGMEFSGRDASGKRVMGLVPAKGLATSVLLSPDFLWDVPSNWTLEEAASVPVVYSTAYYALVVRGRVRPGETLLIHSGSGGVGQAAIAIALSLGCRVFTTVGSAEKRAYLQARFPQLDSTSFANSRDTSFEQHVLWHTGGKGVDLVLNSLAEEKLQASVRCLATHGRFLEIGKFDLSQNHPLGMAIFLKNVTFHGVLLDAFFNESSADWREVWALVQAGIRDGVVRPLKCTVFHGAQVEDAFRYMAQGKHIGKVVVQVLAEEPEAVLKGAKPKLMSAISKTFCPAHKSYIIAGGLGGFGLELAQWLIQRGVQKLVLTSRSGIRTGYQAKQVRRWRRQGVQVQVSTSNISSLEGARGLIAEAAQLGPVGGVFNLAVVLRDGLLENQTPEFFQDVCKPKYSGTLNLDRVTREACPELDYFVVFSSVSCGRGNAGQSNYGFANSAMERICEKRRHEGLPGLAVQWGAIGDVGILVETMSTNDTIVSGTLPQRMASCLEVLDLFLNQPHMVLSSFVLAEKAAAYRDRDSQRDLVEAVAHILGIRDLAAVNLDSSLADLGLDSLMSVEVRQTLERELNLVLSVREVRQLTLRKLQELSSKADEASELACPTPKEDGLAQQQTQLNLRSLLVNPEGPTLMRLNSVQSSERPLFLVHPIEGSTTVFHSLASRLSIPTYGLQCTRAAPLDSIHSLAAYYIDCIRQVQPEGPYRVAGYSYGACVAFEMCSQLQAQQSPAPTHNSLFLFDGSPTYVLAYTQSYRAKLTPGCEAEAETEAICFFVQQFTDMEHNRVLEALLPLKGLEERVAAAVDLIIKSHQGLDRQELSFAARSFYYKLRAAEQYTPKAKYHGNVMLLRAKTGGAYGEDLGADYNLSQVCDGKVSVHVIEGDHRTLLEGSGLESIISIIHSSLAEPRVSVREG

Row | SMILES | inhibition at 10 µM [1] [%] | IC50 [µM] | inhibition at 10 µM (read-out: Human FASN % inhibition @ 10 μM) [%]
1 | O=C(C1CC1)N1CC[C@@H](CN2C(=O)C3(CCCC3)N=C2c2ccc(-c3ccc(-c4nn[nH]n4)cc3)cc2)C1 [compound 91, 3-{[(3R)-1-(Cycloprropylcarbonyl)pyrrolidin-3-yl]methyl}-2-[4′-(2H-tetrazol-5-yl)biphenyl-4-yl]-1,3-diazaspiro[4.4]non-1-en-4-one] | 21.3 | > 10 | 
2 | NC(=O)CN1CC[C@@H](CN2C(=O)C3(CCN(Cc4ccccc4)CC3)N=C2c2ccc(-c3ccc4occc4c3)cc2)C1 [compound 95, 2-[(3R)-3-({2-[4-(1-Benzofuran-5-yl)phenyl]-8-benzyl-4-oxo-1,3,8-triazaspiro[4.5]dec-1-en-3-yl}methyl)pyrrolidin-1-yl]acetamide] | 24.4 | > 10 | 
3 | O=C(CN1CC[C@@H](CN2C(=O)C3(CCN(Cc4ccccc4)CC3)N=C2c2ccc(-c3ccc4occc4c3)cc2)C1)C1CC1 [compound 96, 2-[4-(1-Benzofuran-5-yl)phenyl]-8-benzyl-3-{[(3R)-1-(2-cyclopropyl-2-oxoethyl)pyrrolidin-3-yl]methyl}-1,3,8-triazaspiro[4.5]dec-1-en-4-one] | 71.2 | 5.01 | 
4 | Cc1ccc(-c2ccc(C3=NC4(CC4)C(=O)N3CC3CCN(C(=O)C4CC4)CC3)cc2)cc1 [compound 97, 6-{[1-(Cyclopropylcarbonyl)piperidin-4-yl]methyl}-5-(4′-methylbiphenyl-4-yl)-4,6-diazaspiro[2.4]hept-4-en-7-one] | 58.7 | 5.62 | 
5 | COc1ccccc1-c1ccc(C2=NC3(CC3)C(=O)N2CC2CCN(C(=O)C3CC3)CC2)cc1 [compound 98, 6-{[1-(Cyclopropylcarbonyl)piperidin-4-yl]methyl}-5-(2′-methoxybiphenyl-4-yl)-4,6-diazaspiro[2.4]hept-4-en-7-one] | 35.1 | > 10 | 
6 | COc1ccc(-c2ccc(C3=NC4(CC4)C(=O)N3CC3CCN(C(=O)C4CC4)CC3)cc2)cc1 [compound 99] | 61.4 | 4.68 | 
7 | O=C(C1CC1)N1CC[C@@H](CN2C(=O)C3(CC3)N=C2c2ccc(-c3ccc(C(F)(F)F)cc3)cc2)C1 [compound 104, 6-{[(3R)-1-(Cyclopropylcarbonyl)pyrrolidin-3-yl]methyl}-5-[4′-(trifluoromethyl)biphenyl-4-yl]-4,6-diazaspiro[2.4]hept-4-en-7-one] | 71.7 | 3.24 | 
8 | O=C(C1CC1)N1CCC(CN2C(=O)C3(CC3)N=C2c2ccc(-c3ccc(C(F)(F)F)cc3)cc2)CC1 [compound 107, 6-{[1-(Cyclopropylcarbonyl)piperidin-4-yl]methyl}-5-[4′-(trifluoromethyl)biphenyl-4-yl]-4,6-diazaspiro[2.4]hept-4-en-7-one] | 10.6 | > 10 | 
9 | O=C(C1CC1)N1CCC(CN2C(=O)C3(CC3)N=C2c2ccc(-c3cccc(O)c3)cc2)CC1 [compound 108, 6-{[1-(Cyclopropylcarbonyl)piperidin-4-yl]methyl}-5-(3′-hydroxybiphenyl-4-yl)-4,6-diazaspiro[2.4]hept-4-en-7-one] | 83.8 | 1.51 | 
10 | O=C(C1CC1)N1CCC(CN2C(=O)C3(CC3)N=C2c2ccc(-c3ccc(Cl)cc3)cc2)CC1 [compound 109, 5-(4′-Chlorobiphenyl-4-yl)-6-{[1-(cyclopropylcarbonyl)piperidin-4-yl]methyl}-4,6-diazaspiro[2.4]hept-4-en-7-one] | 62.1 | 5.13 | 
11 | O=C(C1CC1)N1CCC(CN2C(=O)C3(CC3)N=C2c2ccc(-c3ccc(F)cc3)cc2)CC1 [compound 110, 6-{[1-(Cyclopropylcarbonyl)piperidin-4-yl]methyl}-5-(4′-fluorobiphenyl-4-yl)-diazaspiro[2.4]hept-4-en-7-one] |  | > 10 | 32.6
12 | Cc1cccc(-c2ccc(C3=NC4(CC4)C(=O)N3CC3CCN(C(=O)C4CC4)CC3)cc2)c1 [compound 111, 6-{[1-(Cyclopropylcarbonyl)piperidin-4-yl]methyl}-5-(3′-methylbiphenyl-4-yl)-4,6-diazaspiro[2.4]hept-4-en-7-one] | 62.2 | 4.37 | 
13 | N#Cc1cccc(-c2ccc(C3=NC4(CC4)C(=O)N3C[C@@H]3CCN(C(=O)C4CC4)C3)cc2)c1 [compound 123, 4′-(6-{[(3R)-1-(Cyclopropylcarbonyl)pyrrolidin-3-yl]methyl}-7-oxo-4,6-diazaspiro[2.4]hept-4-en-5-yl)biphenyl-3-carbonitrile] | 81.5 | 1.26 | 
14 | O=C(C1CC1)N1CC[C@@H](CN2C(=O)C3(CC3)N=C2c2ccc(-c3ccc(OC(F)(F)F)cc3)cc2)C1 [compound 125, 6-{[(3R)-1-(Cyclopropylcarbonyl)pyrrolidin-3-yl]methyl}-5-[4′-(trifluoromethoxy)biphenyl-4-yl]-4,6-diazaspiro[2.4]hept-4-en-7-one] | 64.6 | 3.98 | 
15 | CC(C)C(=O)N1CCC2(CC1)N=C(c1ccc(-c3ccc4occc4c3)cc1)N(CC1CN(C(=O)C3CC3)C1)C2=O [compound 129, 2-[4-(1-Benzofuran-5-yl)phenyl]-3-{[1-(cyclopropylcarbonyl)azetidin-3-yl]methyl}-8-(2-methylpropanoyl)-1,3,8-triazaspiro[4.5]dec-1-en-4-one] | 90.7 | 1.17 | 
16 | O=C(C1CC1)N1CC(CN2C(=O)C3(CCNCC3)N=C2c2ccc(-c3ccc4occc4c3)cc2)C1 [compound 130, 2-[4-(1-Benzofuran-5-yl)phenyl]-3-{[1-(cyclopropylcarbonyl)azetidin-3-yl]methyl}-1,3,8-triazaspiro[4.5]dec-1-en-4-one] | 74 | 3.8 | 
17 | Cn1ncc2cc(-c3ccc(C4=NC5(CCNCC5)C(=O)N4CC4CN(C(=O)C5CC5)C4)cc3)ccc21 [compound 131, 3-{[1-(Cyclopropylcarbonyl)azetidin-3-yl]methyl}-2-[4-(1-methyl-1H-indazol-5-yl)phenyl]-1,3,8-triazaspiro[4.5]dec-1-en-4-one] | 52.1 | 8.91 | 
18 | O=C(C1CC1)N1CC(CN2C(=O)C3(CCNCC3)N=C2c2ccc(-c3ccc4cnccc4c3)cc2)C1 [compound 132, 3-{[1-(Cyclopropylcarbonyl)azetidin-3-yl]methyl}-2-(4-isoquinolin-6-ylphenyl)-1,3,8-triazaspiro[4.5]dec-1-en-4-one] | 83.7 | 1.7 | 
19 | CC(C)C(=O)N1CCC2(CC1)N=C(c1ccc(-c3ccc4c(cnn4C)c3)cc1)N(CC1CN(C(=O)C3CC3)C1)C2=O [compound 135, 3-{[1-(Cyclopropylcarbonyl)azetidin-3-yl]methyl}-2-[4-(1-methyl-1H-indazol-5-yl)phenyl]-8-(2-methylpropanoyl)-1,3,8-triazaspiro[4.5]dec-1-en-4-one] | 78.9 | 2.45 | 
20 | CN(C)CC(=O)N1CCC2(CC1)N=C(c1ccc(-c3ccc4c(cnn4C)c3)cc1)N(CC1CN(C(=O)C3CC3)C1)C2=O [compound 136, 3-{[1-(Cyclopropylcarbonyl)azetidin-3-yl]methyl}-8-(N,N-dimethylglycyl)-2-[4-(1-methyl-1H-indazol-5-yl)phenyl]-1,3,8-triazaspiro[4.5]dec-1-en-4-one] | 77.7 | 2.95 | 
21 | CC(C)C(=O)N1CCC2(CC1)N=C(c1ccc(-c3ccc4c(cnn4C)c3)cc1)N(C[C@@H]1CCN(C(=O)C3CC3)C1)C2=O [compound 139, (R)-3-((1-(cyclopropanecarbonyl)pyrrolidin-3-yl)methyl)-8-isobutyryl-2-(4-(1-methyl-1H-indazol-5-yl)phenyl)-1,3,8-triazaspiro[4.5]dec-1-en-4-one] | 112 | 0.174 | 
22 | Cn1ncc2cc(-c3ccc(C4=NC5(CCN(C(=O)C6CC6)CC5)C(=O)N4C[C@@H]4CCN(C(=O)C5CC5)C4)cc3)ccc21 [compound 140, 8-(Cyclopropylcarbonyl)-3-{[(3R)-1-(cyclopropylcarbonyl)pyrrolidin-3-yl]methyl}-2-[4-(1-methyl-1H-indazol-5-yl)phenyl]-1,3,8-triazaspiro[4.5]dec-1-en-4-one] | 114 | 0.224 | 
23 | CN(C)CC(=O)N1CCC2(CC1)N=C(c1ccc(-c3ccc4c(cnn4C)c3)cc1)N(C[C@@H]1CCN(C(=O)C3CC3)C1)C2=O [compound 141, 3-{[(3R)-1-(Cyclopropylcarbonyl)pyrrolidin-3-yl]methyl}-8-(N,N-dimethylglycyl)-2-[4-(1-methyl-1H-indazol-5-yl)phenyl]-1,3,8-triazaspiro[4.5]dec-1-en-4-one] | 110 | 0.251 | 
24 | CN(C)CC(=O)N1CCC2(CC1)N=C(c1ccc(-c3ccc4cnccc4c3)cc1)N(C[C@@H]1CCN(C(=O)C3CC3)C1)C2=O [compound 142, 3-{[(3R)-1-(Cyclopropylcarbonyl)pyrrolidin-3-yl]methyl}-8-(N,N-dimethylglycyl)-2-(4-isoquinolin-6-ylphenyl)-1,3,8-triazaspiro[4.5]dec-1-en-4-one] | 119 | 0.0692 | 
